Usually IC50 stands for the concentration that inhibits the measured activity by half. A high value points to weaker potency.

One series in a line: in vitro. Particulars: human. As for the experimental part:
(§1) ATP levels were measured by adding 50 μL of CellTiter-Glo reagent to each well and after 5 minutes of incubation luminescence was measured with SpectraMax i3.
(§2) 96-well plates were seeded with HEK293 cells at concentration of 30,000 cells per well in 100 μL of DMEM growth media supplemented with 1% NEAA and 10% FBS. Border wells were filled with 100 μL of sterile PBS. The next day compounds were added to cells. Compounds were first 2× diluted in 96-well V-bottom plate in PBS. After that compounds were mixed with media in 96-deep-well plate for final concentrations. Growth media from 3 plates was aspirated and replaced with 100 μL of prepared compounds. Compounds were tested in duplicate. ATP levels were measured by adding 50 μL of CellTiter-Glo reagent to each well and after 5 minutes of incubation luminescence was measured with SpectraMax i3. […] The potential effects were then calculated and presented as IC50 values (μg/mL).

Series [1] deals with Escherichia coli ATCC 25922. Briefly: microbe, parasite or virus in culture. The note with it: ATCC 25922. In kind it is cell-based. As for the experimental part: (§3) Testing was performed according to CLSI (Clinical Laboratory Standards Institute) guidelines. Read out of the study was determination of MIC—minimal inhibitory concentration expressed in μg/mL.
(§4) Out of these PBS solutions, 76.8 μL was transferred to 1423.2 μL of MH media in deep well for testing compound alone. […] Out of these working solutions 100 μL were transferred to wells in the third column of 96-well assay plates. Assay plates were previously filled with 50 μL of MH media in all wells except for the wells in the third column.
(§5) Microorganisms used were all revived from skim milk storage at −70° C. by plating them on MH agar plates. The following day a single colony of each microorganism was again streaked on fresh agar plates. The next day, using direct colony suspension method, broth solutions that achieve turbidity equivalent to 0.5 McFarland standard for each microorganism were prepared. […] Out of these suspensions, actual inoculums were prepared by diluting them 100× with MH media giving final microorganism count of 2-8×10^5 CFU/mL. For each strain of microorganisms, 20 mL of these inoculum solutions were prepared. From the second to the twelfth column of 96-well plates, 50 μL of these solutions were transferred per well. To the first column, 50 μL per well of pure growth media was added. In this manner the first column was used as sterility control of media used, the second column was used as control of microorganism's growth and the rest of the plate was used for MIC determination. All plates were incubated for 16-24 h at 37° C.
(§6) MIC value was determined by visual inspection of bacterial growth within 96-well plates. The first column in which there was no visible growth of bacteria was determined as MIC value for peptide or combination tested in that particular row.

The test system of series [2] is Pseudomonas aeruginosa ATCC 27853. Briefly: microbe, parasite or virus in culture. In kind it is cell-based. Particulars: ATCC 27853. The protocol: as §3, §4, §5, §6
Series [3] deals with Klebsiella pneumoniae ATCC 700603. Briefly: microbe, parasite or virus in culture. In kind it is cell-based. Particulars: ATCC 700603. The protocol: as §3, §4, §5, §6
Series [4] relates to Acinetobacter baumannii ATCC 17978. In words: microbe, parasite or virus in culture. In kind it is cell-based. The note with it: ATCC 17978. The protocol: as §3, §4, §5, §6
Series [5] has as its system Pseudomonas aeruginosa B1954, clinical isolate. Briefly: microbe, parasite or virus in culture. Particulars: B1954, clinical isolate. As for the experimental part: as §3, §4, §5, §6
The subject of series [6] is Escherichia coli ATCC BAA-2452. In words: microbe, parasite or virus in culture. Particulars: ATCC BAA-2452. The protocol: as §3, §4, §5, §6
For series [7], the system named is Acinetobacter baumannii B2026, clinical isolate. In words: microbe, parasite or virus in culture. The note with it: B2026, clinical isolate. The protocol: as §3, §4, §5, §6
The test system of series [8] is Acinetobacter baumannii ATCC BAA-1605. Briefly: microbe, parasite or virus in culture. The note with it: ATCC BAA-1605. The protocol: as §3, §4, §5, §6
In series [9] the test system is Klebsiella pneumoniae ATCC BAA-2524. In words: microbe, parasite or virus in culture. The note with it: ATCC BAA-2524. The protocol: as §3, §4, §5, §6
The test system of series [10] is Escherichia coli B1927, clinical isolate. Briefly: microbe, parasite or virus in culture. The note with it: B1927, clinical isolate. The protocol:
as §3, §4, §5, §6

Series [11] relates to Pseudomonas aeruginosa ATCC BAA-2108. Briefly: microbe, parasite or virus in culture. Particulars: ATCC BAA-2108. As for the experimental part:
as §3, §4, §5, §6

The subject of series [12] is Klebsiella pneumoniae B1945, clinical isolate. Briefly: microbe, parasite or virus in culture. Particulars: B1945, clinical isolate. The protocol:
as §3, §4, §5, §6

The next series relates to A. baumannii LMG01041. In words: microbe, parasite or virus in culture. In kind it is cell-based, Acinetobacter baumannii. The note with it: LMG01041. The method in brief:
(§7)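 Broth microdilution MIC in duplicate, polypropylene plates, Mueller Hinton Broth, final inoculum 5*10^5 CFU/mL, 2-fold serial compound dilutions, 37° C. MIC taken as lowest concentration inhibiting visible growth; inoculum checked by plating a dilution of the growth control.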

A further series deals with L. lactis MG1363. The note with it: MG1363.
A further series concerns HEK293 cells. In words: in vitro. As for the experimental part: as §1, §2
A further series has as its system E. aerogenes LMG 02094. Briefly: microbe, parasite or virus in culture. In kind it is cell-based, Enterobacter aerogenes. The note with it: LMG 02094. Summed up: as §7
The subject of series [13] is human red blood cells (HRBc). In words: Hemolytic test. Particulars: red cells of human, 1 h. As for the experimental part:
Fresh human red blood cells (HRBc) were used for the hemolytic tests. After incubation with different concentrations of test compounds at 37° C. for 1 hour, the absorbance of the supernatant were measured.

In the next series the test system is E. coli LMG15862. In words: microbe, parasite or virus in culture. In kind it is cell-based, Escherichia coli. The note with it: LMG15862. The method in brief: as §7

Values after ≈ are worked out from the molar mass of the structure shown. A value given as a limit tells only on which side of the number the result lay.

`CC[C@@H](C)[C@@H](NC(=O)[C@@H](CCCNC(=N)N)NC(=O)[C@@H](CCCNC(=N)N)NC(=O)[C@@H](Cc1ccccc1)NC(=O)[C@@H](CC(C)C)NC(=O)[C@@H](CCCNC(=N)N)NC(=O)[C@H](N)CCCNC(=N)N)C(=O)N[C@H](CC(C)C)C(=O)N[C@H](CCCNC(=N)N)C(=O)N[C@H](Cc1c[nH]c2ccccc12)C(=O)N[C@H](CC(C)C)C(N)=O` [D6] gave a 50% inhibitory concentration (IC50) in the series “in vitro” of 52.1 µg/mL. In addition, the MIC in series [1] amounted to 2 µg/mL; in series [2] it was 4 µg/mL; in series [3], 4 µg/mL; in series [4], 2 µg/mL; in series [5], 4 µg/mL; in series [6], 2 µg/mL. Also, the MIC in series [7] amounted to 4 µg/mL; in [8], 8 µg/mL; in series [9], 4 µg/mL; in series [10] it was 2 µg/mL; in series [11], 8 µg/mL; in [12], 8 µg/mL.
As for `CC[C@@H](C)[C@@H](NC(=O)[C@H](N)CCCNC(=N)N)C(=O)N[C@@H](C(=O)N[C@H](CCC(N)=O)C(=O)N[C@H](CCCNC(=N)N)C(=O)N[C@@H](C(=O)N[C@H](CCCCN)C(=O)N[C@H](CCCCN)C(=O)N[C@H](Cc1c[nH]c2ccccc12)C(=O)N[C@H](CC(C)C)C(=O)N[C@H](CCCNC(=N)N)C(N)=O)[C@H](C)CC)C(C)C` [GNP-D8], the MIC value in the series on A. baumannii LMG01041 came to 8 µM (≈ 12 µg/mL); against E. aerogenes LMG 02094, 32 µM (≈ 47.8 µg/mL); in series [5], 85.62 µM; in series [6], 5.35 µM; in series [7] it was 10.7 µM; in [8], 10.7 µM. The figures for the MIC value (in series [9]; in [11]; with E. coli LMG15862) were >85.62 µM, >85.62 µM and 4 µM (≈ 5.98 µg/mL), respectively. Also, in the series with L. lactis MG1363, the “MIC value of antimicrobial compounds alone” value was found to be 16 µM. In addition, the IC50 in the series “in vitro” is ≥ 42.8 µM. Moreover, the “Effect on ATP levels” value with HEK293 cells is reported as “do not affect the ATP levels”. Also, in series [13], the “HC50 (hemolytic activity)” value was >200 µM.
Regarding `CC[C@@H](C)[C@@H](NC(=O)[C@H](N)CCCNC(=N)N)C(=O)N[C@@H](C(=O)N[C@H](CCC(N)=O)C(=O)N[C@H](CCCNC(=N)N)C(=O)N[C@@H](C(=O)N[C@H](CCCCN)C(=O)N[C@H](CCCCN)C(=O)N[C@H](Cc1c[nH]c2ccccc12)C(=O)N[C@H](CC(C)C)C(=O)N[C@H](CCCNC(=N)N)C(N)=O)[C@H](C)CC)C(C)C` [D8], the IC50 in the series “in vitro” was > 64 µg/mL. Further, the MIC was 8 µg/mL in [1]; 64 µg/mL in series [2]; >128 µg/mL in [3]; 16 µg/mL in series [4]; 128 µg/mL in series [5]; 8 µg/mL in series [6]. Moreover, the MIC in [7] is 16 µg/mL; in [8] it was 16 µg/mL; in series [9], >128 µg/mL; in series [10], 4 µg/mL; in series [11] it was >128 µg/mL; in [12], 32 µg/mL.

The values above are taken from patent US20200368315A1, “ANTIMICROBIAL PEPTIDES AND ADMIXTURES THEREOF SHOWING ANTIMICROBIAL ACTIVITY AGAINST GRAM-NEGATIVE PATHOGENS” (priority 2017, published 2020).
